Results published in patent US11185539B2 (priority 2017, dated 2021).

Experiments:
[1] = system: Collagen1a1; assay: Collagen1a1 protein levels in HCFs, Western Blot; assay type: cell-based, human; settings: Lycorine 5 μM, Bufalin, Gitoxigenin, Anisomycin 1 μM, 24 h, DMSO control
Experimental: Additionally, HCFs were treated with said compounds (Lycorine: 5 μM, Bufalin: 1 μM, Gitoxigenin: 1 μM and Anisomycin: 1 μM) for 24 h as indicated again, lysed and analyzed for extracellular matrix component Collagen1a1 protein levels in primary HCFs (normalized to GAPDH) by representative Western Blot, DMSO refers as a control (see FIG. 2D, 3D, 4D, 5D).

[2] = system: C57BL/6N mice with angiotensin II-induced diastolic heart failure; assay: Picrosirius-red collagen staining of heart sections, therapeutic model (eight weeks); assay type: in vivo; settings: therapeutic: i.p. every other day from week 2 of angiotensin II; week 8
Experimental: (§1) Diastolic heart failure (HF) was induced in C57BL/6N mice via implantation of angiotensin II filled minipumps (see Example 3). In difference to Example 3, C57BL/6N mice were infused with 3 mg/kg/day angiotensin II by subcutaneously implanted minipumps for eight weeks.
(§2) Next, Bufalin or Lycorine (dissolved in DMSO) or the solvent DMSO alone (as control) were injected intraperitoneally (i.p) every other day until the endpoint, starting two weeks after start of angiotensin II-infusion (see FIG. 11).
Additionally, eight weeks after the operation, histological sections of the hearts were stained for collagen using picrosirius-red (n=7-12 per group) after treatment with Bufalin or Lycorine.

[3] = system: C57BL/6N mice with angiotensin II-induced diastolic heart failure; assay: Hemodynamic measurement (MILLAR), therapeutic model; assay type: in vivo; settings: therapeutic: Bufalin 0.5 mg/kg, Lycorine 4.5 mg/kg; week 8
Experimental: as §1, §2
Diastolic HF was induced in C57BL/6 mice and Bufalin or Lycorine were injected as indicated in Example 5. Eight weeks after the operation, hemodynamic measurements of the mice were assessed (n=6-7 per group) by treating the mice with said compounds (Bufalin: 0.5 mg/kg, Lycorine 4.5 mg/kg).

[4] = system: C57BL/6N mice with angiotensin II-induced diastolic heart failure; assay: Tissue Doppler Imaging, therapeutic model; assay type: in vivo; settings: therapeutic: Bufalin 0.5 mg/kg; week 8; vs AngII solvent control
Experimental: as §1, §2
(§3) Diastolic HF was induced in C57BL/6 mice and Bufalin were injected as indicated in Example 5. Eight weeks after the operation, cardiac function of the mice was assessed echocardiographically (n=3-6 per group) by treating the mice with said compounds (Bufalin: 0.5 mg/kg)
Echocardiographic measurements were performed using Tissue Doppler Imaging (TDI), which refers to a medical ultrasound technology mainly used in Echocardiography that measures the velocity of the heart muscle or myocardium through the phases of one or more heartbeats by the Doppler effect (frequency shift) of the reflected ultrasound (see FIG. 14).

[5] = system: C57BL/6N mice with angiotensin II-induced diastolic heart failure; assay: 2-dimensional speckle-tracking strain echocardiography, therapeutic model; assay type: in vivo; settings: therapeutic: Bufalin 0.5 mg/kg; week 8
Experimental: as §1, §2, §3
Additionally, myocardial deformation was assessed using strain imaging such as 2-dimensional speckle-tracking strain echocardiography. Global longitudinal strain (GLS), a measure for the deformation of the myocardium, which decreases when diastolic dysfunction is present, is depicted in FIG. 15.

[6] = system: miRNA expression of HCFs; assay: High-throughput miRNA sequencing in HCFs; assay type: cell-based, human; settings: 1 μM, 24 h, vs DMSO
Experimental: HCFs were treated with 1 μM Bufalin for 24 h as indicated, total RNA was isolated and subjected to high-throughput miRNA sequencing profiling via deep sequencing, DMSO refers as a control. To perform a high-throughput miRNA sequencing the Illumine® TruSeq® Small RNA technology is used to prepare various RNA species which is known to the person skilled in the art. In view of said technology, advantages of the natural structure common to most known microRNA molecules are taken. Most mature miRNAs have a 5′-phosphate and a 3′-hydroxyl group as a result of the cellular pathway used to create them. Because of this, the Illumina adapters which are used are directly and specifically ligated to miRNAs. Thus, libraries for subsequent cluster generation are prepared, using total RNA as input. Further, adapter ligation, reverse transcription, PCR amplification, and pooled gel purification to generate a library product is applied as it is known to the skilled person in the art. […] Data represent pooled triplicates from 3 independent experiments. Representative experiment shown; the same experiment was performed with all the anti-fibrotic natural substances identified (see FIG. 16).

[7] = system: kidney and liver; assay: Kidney and liver histology (HE, PAS), angiotensin II model, fourteen days; assay type: in vivo, mice; settings: Bufalin 0.5, Lycorine 4.5 mg/kg; fourteen days after the operation
Experimental: (§4) Again, HF was induced in mice (Example 3) and Bufalin (0.5 mg/kg) as well as Lycorine (4.5 mg/kg) were injected as indicated in Example 3. Fourteen days after the operation, kidneys and livers were subjected to histological assessment via Hematoxylin and Eosin (HE) and Periodic acid-Schiff (PAS) stain (n=2-4 per group) (see FIGS. 28A and B).

[8] = system: kidney and liver; assay: Kidney and liver histology (HE, PAS), therapeutic model, eight weeks; assay type: in vivo, mice; settings: therapeutic approach; Bufalin 0.5, Lycorine 4.5 mg/kg; eight weeks after the operation
Experimental: as §4, with “HF” for “Again, HF”, “5)” for “3)”, “5. Eight weeks” for “3. Fourteen days”, “(n=4” for “(n=2-4”, “group).” for “group) (see FIGS. 28A and B).”

[9] = Myocardial and plasma concentrations, LC and QTOF-MS; assay type: in vivo, mice; settings: 9 minutes after injection; Bufalin 0.5, Lycorine 4.5 mg/kg
Experimental: Plasma and hearts of C57BL/6N mice were harvested 9 minutes after injection with natural substances Bufalin (0.5 mg/kg) or Lycorine (4.5 mg/kg) (dissolved in DMSO). After extraction of the substances, Bufalin and Lycorine were quantified by liquid chromatography (LC) and quadrupole time-of-flight mass spectrometry (QTOF-MS) (see FIG. 30).

[10] = system: rat renal fibroblast cell line NRK49F; assay: Proliferation of rat renal fibroblast cell line NRK49F, BrdU-ELISA; assay type: cell-based; settings: 24 h; for proliferation of renal fibroblasts (NRK49F): Lycorine 1, 5, 10 μM, Bufalin 0.1, 1, 10 μM
Experimental: (§5) Cells of the rat renal fibroblast cell line NRK49F and primary human pulmonary fibroblasts (HPFs) were treated with Lycorine (1 μM, 5 μM and 10 μM) or Bufalin (0.1 μM, 1 μM, 10 μM) for 24 h and proliferation of respective fibroblasts was measured by BrdU-ELISA (see FIG. 39).

[11] = system: primary human pulmonary fibroblasts (HPFs); assay: Proliferation of primary human pulmonary fibroblasts, BrdU-ELISA; assay type: cell-based; settings: 24 h; for proliferation of pulmonary fibroblasts (HPFs): Lycorine 1, 5, 10 μM, Bufalin 0.1, 1, 10 μM
Experimental: as §5

COc1ccc(C[C@H]2NC[C@H](O)[C@H]2OC(C)=O)cc1 [Anisomycin]
expression levels of Collagen1a1 (normalized to GAPDH) [1]: decreases expression levels

C[C@]12CC[C@H](O)C[C@H]1CC[C@@H]1[C@@H]2CC[C@]2(C)[C@@H](c3ccc(=O)oc3)CC[C@]12O [Bufalin]
expression levels of Collagen1a1 (normalized to GAPDH) [1]: decreases expression levels | collagen deposition in heart sections (picrosirius-stained areas) [2]: reduction of collagen deposition | end-diastolic pressure-volume relationship (EDPVR) [3]: significant reduction | velocity of tissue motion in diastole (E′) [4]: recovers the velocity of tissue motion in diastole | ejection fraction (EF) [5]: remained comparable in all tested groups | global longitudinal strain (GLS) [5]: significant reversal of the downshift | number of miRNAs downregulated in HCFs [6]: 33 | number of miRNAs upregulated in HCFs [6]: 14 | kidney and liver morphology (HE, PAS) [7]: does not induce necrosis, inflammation or any morphological changes | kidney and liver morphology (HE, PAS) [8]: does not induce necrosis, inflammation or any morphological changes | levels in the myocardium compared to the plasma [9]: higher levels in (A) the myocardium as compared to (B) the plasma | proliferation of renal fibroblasts (NRK49F) [10]: significantly inhibits only proliferation of pulmonary fibroblasts | most effective amount (pulmonary fibroblasts) [11]: 10 µM | proliferation of pulmonary fibroblasts (HPFs) [11]: significantly inhibits

C[C@]12CC[C@H](O)C[C@H]1CC[C@@H]1[C@@H]2CC[C@]2(C)[C@@H](C3=CC(=O)OC3)[C@@H](O)C[C@]12O [Gitoxigenin]
expression levels of Collagen1a1 (normalized to GAPDH) [1]: decreases expression levels

O[C@H]1[C@H]2c3cc4c(cc3CN3CCC(=C[C@@H]1O)[C@H]23)OCO4 [Lycorine]
expression levels of Collagen1a1 (normalized to GAPDH) [1]: decreases expression levels | collagen deposition in heart sections (picrosirius-stained areas) [2]: reduction of collagen deposition | end-diastolic pressure-volume relationship (EDPVR) [3]: significant reduction | kidney and liver morphology (HE, PAS) [7]: does not induce necrosis, inflammation or any morphological changes | kidney and liver morphology (HE, PAS) [8]: does not induce necrosis, inflammation or any morphological changes | levels in the myocardium compared to the plasma [9]: higher levels in (A) the myocardium as compared to (B) the plasma | most effective amount (renal fibroblasts) [10]: 10 µM | proliferation of renal fibroblasts (NRK49F) [10]: significantly inhibits proliferation | most effective amount (pulmonary fibroblasts) [11]: 10 µM | proliferation of pulmonary fibroblasts (HPFs) [11]: significantly inhibits proliferation
